Laboratory results: patent US20100234362A1, “USE OF DIAZOXIDE FOR SUPPRESSING THE PLASMA INSULIN LEVEL IN A MAMMAL” (priority 2007, published 2010)
Where two headings read alike, the source gives them in different places.

How the values were obtained:
[1] = system: insulin secretion; details: at comparable dosages; cited from earlier work
[2] = 8-week weight-loss diet, hyperinsulinaemic obese subjects; cited from earlier work
[3] = cited from earlier work
[4] = for Weight: 14 obese men after 6 months oral Diazoxide (mean 600±54 mg/day), mean ± SE, baseline 115.1 ± 3.4; for Waist circumference: baseline 116.9 ± 1.4
Experimental: All subjects received were explained the physiological principle of this study. They also received dietary advice to reduce caloric intake to the calculated basal requirements for ideal body weight (based on the Harrison-Bennedict equation) and the instruction to increase walking exercise to at least 30 minutes a day. All subjects were allowed to do more physical exercise; the amount of daily physical exercise was not recorded. All subjects were instructed how to perform home glucose measurements (HGM). Blood samples were taken in the fasting state, (a) 2 hours after breakfast, just before lunch, (b) 2 hours after lunch, just before dinner, (c) 2 hours after dinner, at bedtime, and (d) at 3 am.
Baseline measurements included body weight, body height, abdominal circumference, body composition by total body dual energy X-ray absorptiometry (DEXA), supine and upright blood pressure, HGM for two days and the assessment of serum glucose levels and serum insulin levels in response to a standarised test meal. […] Venous blood samples were taen through a venous line inserted into the forearm at −30, 0, 30, 45, 60, 90, 120, 180, 240 and 300 minutes.
After completion of all baseline measurements, the subjects started Diazoxide 50 mg (three times a day) which was taken before each meal. Subsequently, the outpatient clinic was visited every month where the following data were recorded: body weight, abdominal circumference, supine and upright blood pressure, the results of a two-day, 8-point HGM performed in the week preceding the visit and adverse effects. Every visit, the daily Diazoxide dose was increased by 3×50 mg until a maximum of 300 mg (three times a day) was reached or until adverse side effects occurred. The Diazoxide dose was not increased if clinically relevant edema persisted for ore than a month, if upright systolic blood pressure was <110 mm Hg, if upright diastolic blood pressure was <70 mm Hg, or if fasting home glucose level was >7 nmol/l, or non-fasting home glucose level was >11 nmol/l.
After six months of treatment, all measurements were repeated including the meal test. Diazoxide was taken at t−30. Blood samples taken during the meal test at t120 were also analysed for Diazoxide levels. […] The results of total body DEXA were expressed as kg lean body mass, fat mass and bone mass. Normal values for serum glucose levels and serum insuli levels during the test meal were obtained by performing this test in ten healthy, age-matched, non-obese men (BMI about 20 to about 25 kg/m^2).
All data are shown as mean values±standard error (SE). The paired t-test was used to analyse the response to Diazoxide treatment, employing the Bonferoni correction for multiple comparisons. A p-value of less than 0.05 was considered to be statistically significant.

[5] = system: blood glucose and insulin levels; details: about 0.4 to about 0.8 mg/kg body weight before each meal; subjects with postprandial hyperglycemia and reactive hypoglycemia; cited from earlier work
[6] = system: plasma insulin levels; details: one week, cited from earlier work
[7] = Plasma Diazoxide level by HPLC/UV; assay type: in vivo; details: male, human, at six months, mean daily dose 600±54 mg (5.7±0.5 mg/kg), oral, three times a day, read-out: plasma DZX level
Text: Diazoxide was taken at t−30.

[8] = maximal 200 mg/day divided in three dosages, eight weeks, 24 hyperinsulinemic patients; placebo 5.0 kg; cited from earlier work
[9] = system: plasma insulin and glucose levels; test: Standardised 500 kCal meal test before and after six months of Diazoxide: plasma glucose and insulin; assay type: in vivo, human; parameters: Whole Body Insulin Sensitivity: unit not given here
[10] = literature clinical trials; cited from earlier work
[11] = DEXA, 6 months vs baseline, P<0.001
[12] = oral 300 mg per day divided in three dosages
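Wherever change of LDL cholesterol is given: obese men given oral Diazoxide before meals with dose raised monthly up to 300 mg three times daily, plus diet and walking advice, measured at baseline and after six months.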
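Wherever change of systolic blood pressure is given: obese men given oral Diazoxide before meals with dose raised monthly up to 300 mg three times daily, plus diet and walking advice, measured at baseline and after six months.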
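Wherever decrease of diastolic blood pressure is given: obese men given oral Diazoxide before meals with dose raised monthly up to 300 mg three times daily, plus diet and walking advice, measured at baseline and after six months.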
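Wherever increase of adiponectin levels is given: obese men given oral Diazoxide before meals with dose raised monthly up to 300 mg three times daily, plus diet and walking advice, measured at baseline and after six months.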

## CNC(=NS(=O)(=O)c1ccc(Cl)cc1)N1C[C@H](c2ccccc2)C(c2ccc(Cl)cc2)=N1 [Compound A, (4S)-3-(4-chlorophenyl)-N′-[(4-chlorophenyl)sulfonyl]-N-methyl-4-phenyl-4,5-dihydro-1-H-pyrazole-1-carboximidamide]
[1]
  inhibiting insulin secretion compared with Diazoxide: more effective than Diazoxide

## CC1=NS(=O)(=O)c2cc(Cl)ccc2N1 [Diazoxide, 7-chloro-3-methyl-4H-1,2,4-benzothiadiazine 1,1-dioxide]
[2]
  effect on weight loss: No effect
[3]; after six months, mean dosage about 585 mg/day
  plasma level: about 49 mg/l
[3]; after six months, mean dosage about 585 mg/day, from about 114 kg
  body weight: about 103 kg
[3]; dose raised monthly from 150 to ultimately 900 mg/day
  tolerability of higher dosages: generally not tolerated due to side effects, in particular hyperglycaemia and edema
[4]; 6 months vs baseline
  change of LDL cholesterol: did not change significantly
  change of systolic blood pressure: did not change
[4]; 6 months vs baseline, 95% CI: 6.5-15.4 mm Hg, P<0.001
  decrease of diastolic blood pressure: 10.9±2.3 mm Hg
[4]; 6 months vs baseline, P<0.001
  increase of adiponectin levels: 100±17%
[4]; 6 months vs baseline, P<0.02
  increase of HbAlc: 0.5 % points
[4]; 14 men, six months, 300 to 900 mg/day, other adverse effects not observed
  main dose limiting events: Hyperglycaemia (n=4) and edema (n=8)
[4]; P<0.001
  Weight: 105.7 ± 3.5 kg
[4]; P<0.001, listed as DZX
  Weight: 105.7 ± 3.8 kg
[4]; DEXA after 6 months Diazoxide, baseline 3.35 ± 0.14, NS
  Bone Mass: 3.47 ± 0.11 kg
[4]; DEXA after 6 months Diazoxide, baseline 40.1 ± 1.8, P<0.001
  Fat Mass: 30.7 ± 2.1 kg
[4]; DEXA after 6 months Diazoxide, baseline 70.2 ± 2.0, NS
  Soft Tissue LBM: 70.6 ± 2.4 kg
[4]; DEXA, 6 months vs baseline
  change in soft tissue lean body mass or bone mass: without a concomitant change
[4]; [11]
  change of total body fat mass: −23.3%
  decrease of total body fat mass: 9.5 ± 1.9 kg
[4]; FIG. 5, fasting insulin at 6 months, mean DZX dose in this subgroup 630±56 mg, about 30 pmol/L
  plasma insulin level at which substantial loss of body fat (decrease of 10 kg or more) occurred: below 4.5 mU/L
[4]; after 6 months Diazoxide, baseline 0.37 ± 0.01, P<0.02
  Urate: 0.32 ± 0.02 mmol/L
[4]; after 6 months Diazoxide, baseline 1.12 ± 0.07, P<0.05
  HDL-Cholesterol: 1.25 ± 0.09 mmol/L
[4]; after 6 months Diazoxide, baseline 2.17 ± 0.26, P<0.001
  Triglycerides: 1.08 ± 0.13 mmol/L
[4]; after 6 months Diazoxide, baseline 3.19 ± 0.32, NS
  LDL-Cholesterol: 2.97 ± 0.23 mmol/L
[4]; after 6 months Diazoxide, baseline 5.4 ± 0.1, P<0.02
  HbA1c: 5.9 ± 0.2%
[4]; after 6 months Diazoxide, baseline 6.4 ± 0.5, P<0.001
  Adiponectin: 12.5 ± 1.2 mg/L
[4]; after 6 months Diazoxide, baseline 33.8 ± 0.5, P<0.001
  BMI: 31.0 ± 0.7 kg/m^2
[4]; after 6 months Diazoxide, baseline 85.8 ± 2.1, P<0.001
  Diastolic BP: 74.9 ± 2.1 mmHg
[4]; after 6 months Diazoxide, P<0.001
  Waist circumference: 107.7 ± 2.2 cm
[4]; after 6 months Diazoxide, P<0.001, listed as DZX
  Waist circumference: 107.7±2.2 cm
[4]; after 6 months Diazoxide, baseline 128.8 ± 3.2, NS
  Systolic BP: 128.8 ± 3.0 mmHg
[4]; during six months of treatment
  Glucosuria in fasting morning urine samples: not observed
[4]; of eighteen obese men included
  discontinuation because of side-effects: two men stopped because of side-effects (rash and edema, respectively)
[4]; subgroup with weight loss between 5 and 10% (4/14 men)
  mean weight loss: 6.7±0.5%
[4]; subgroup with weight loss less than 5% (5/14 men)
  mean weight loss: 3.1±0.8%
[4]; subgroup with weight loss more than 10% (5/14 men)
  mean weight loss: 15.7±0.7%
[5]
  effect on blood glucose and insulin levels: effective to normalize blood glucose and insulin levels
[6]; [12]
  effect on fasting or postprandial glucose levels: without affecting fasting or postprandial glucose levels
  reduction of plasma insulin levels: about 20%
[6]; oral 150 and 225 mg per day divided in three dosages
  effect on plasma glucose and insulin levels: no significant effect
[7]
  concentration at 150 min: 50000 ± 5800 ng/mL
[8]
  weight loss: 9.8 kg
[9]; 6 months vs baseline, P<0.001
  reduction of AUCIns: 63%
  reduction of fasting insulin levels: 65%
  reduction of post-meal insulin peak levels: 62%
[9]; 6 months vs baseline, P<0.01
  increase of fasting glucose: 0.8 ± 0.3 mmol/L
[9]; 6 months vs baseline, P<0.02
  rise of AUCGluc: 29%
[9]; 6 months vs baseline, P=0.06
  increase of peak glucose: 1.4 ± 0.7 mmol/L
[9]; 6 months vs baseline, printed 95% CI: 60-145%, P<0.001
  increase of whole body insulin sensitivity: 209%
[9]; after 6 months Diazoxide, baseline 3.0 ± 0.3, P<0.001
  Whole Body Insulin Sensitivity: 8.8 ± 1.2
[9]; after 6 months Diazoxide, baseline 5.5 ± 0.2, P<0.01
  Fasting glucose: 6.3 ± 0.3 mmol/L
[9]; after 6 months Diazoxide, baseline 18.0 ± 2.3, P<0.001
  Fasting Insulin: 5.6 ± 0.7 mU/L
[9]; meal test after 6 months Diazoxide, baseline 8.4 ± 0.3, NS
  Peak glucose: 9.8 ± 0.7 mmol/L
[9]; meal test after 6 months Diazoxide, baseline 16.6 ± 2.1, P<0.001
  AUC insulin: 5.4 ± 0.4 mU · 10^−3/L · min
[9]; meal test after 6 months Diazoxide, baseline 124 ± 17, P<0.001
  Peak Insulin: 35 ± 4 mU/L

## Cc1c(C(=O)NN2CCCCC2)nn(-c2ccc(Cl)cc2Cl)c1-c1ccc(Cl)cc1 [Rimonabant]
[10]
  (placebo-subtracted) net weight loss: about 6 kg

## CCCCCCCCCCC[C@@H](C[C@@H]1OC(=O)[C@H]1CCCCCC)OC(=O)[C@H](CC(C)C)NC=O [Orlistat]
[10]
  (placebo-subtracted) net weight loss: ~3 kg

## CC(C)CC(N(C)C)C1(c2ccc(Cl)cc2)CCC1 (stereo not shown) [Sibutramine]
[10]
  (placebo-subtracted) net weight loss: about 5 kg
